Where a SMILES comes first, the peptide text is derived from it. Where no end group is shown, it is not given here. The star is where a group is joined. Biotin = O=C1N[C@H]2[C@H](CS[C@H]2CCCCC(=O)*)N1

Data set [1] deals with NIH 3T3 cells. The following applies: PTD without cargo moiety, 0-1000 nM (nanomolar range), 48 hours. The protocol:
PTDs (SEQ ID NOS:7 and 10), in the absence of a cargo moiety, were added to NIH 3T3 cultures at final concentrations ranging from 0-1000 nM to determine if the PTDs were cytotoxic. NIH 3T3 cells were seeded and incubated overnight, and the peptides were added to the cultures. The cells were incubated for 48 hours, and cell viability was determined using an Alamar blue assay.

The conditions of data set [2]: Mi et al., Mol. Ther., 2:339-347, 2000; cited from earlier work.
For data set [3], the system named is 293 HEK cells. Put plainly: PTD-mediated transport of streptavidin-β-galactosidase into 293 HEK cells (lysate absorbance at 405 nm). It is filed as cell-based. The following applies: 50 nM complex with streptavidin-β-galactosidase, 30 minutes at 37° C. The protocol:
To determine the effect of biotin location on transduction efficiency, biotin was added to either the amino terminus or the carboxy terminus of three PTDs. A (Gly)3 linker was added to the amino terminus for N-terminal biotinylated peptides. For C-terminal biotinylation, the last glycine in the C-terminal linker was replaced by lysine. The side chain of lysine was used for the attachment of the biotin group. A peptide with negligible transduction activity (Mi et al., Mol. Ther., 2:339-347, 2000) (SEQ ID NO:6) was used as a negative control. PTDs and β-galactosidase were complexed together with a streptavidin-biotin bridge.
To test for transduction efficiency, 293 HEK cells were seeded into a 96-well plate at approximately 4500 cells/well and incubated overnight. To prepare peptide complexes, equimolar concentrations of biotinylated PTD and streptavidin-crosslinked β-galactosidase were mixed and diluted in cell culture medium. The mixtures were incubated for 30 minutes at 37° C. to allow formation of complexes. Each complex was added to a final concentration of 50 nM and incubated for 30 minutes at 37° C. To assay for β-galactosidase activity, the cells were washed 3 times with PBS and were lysed with 100 μl of assay reagent (Pierce). […] The absorbance at 405 nm was measured on a Wallac Victor spectroluminometer.

Data set [4] deals with human dermal fibroblasts. Put plainly: Histochemical staining for β-galactosidase in cells transduced with PTD complex. The class given is cell-based. The following applies: 50 nM complex with streptavidin-β-galactosidase, 1 hour at 37° C., light microscopy. The protocol:
To determine the efficiency of transduction based on the percentage of cells that receive the reporter protein, cells were assayed by histochemical staining for the reporter protein.
HUVEC and human dermal fibroblast cells were each seeded at 40,000 per well of a 24-well plate and incubated overnight. PTD complexes (SEQ ID NO:7-streptavidin-β-galactosidase or SEQ ID NO:6-streptavidin-β-galactosidase) were added to the wells at a final concentration of 50 nM and incubated for 1 hour at 37° C. The cells were washed 3 times in PBS, fixed, and stained for β-galactosidase using a β-galactosidase staining set (Roche) according to the manufacturer's instructions. Following development of β-galactosidase activity, the cells were washed with PBS and visualized by light microscopy.

In data set [5] the test system is NIH 3T3 cells. The following applies: 20 nM complex with streptavidin-linked β-galactosidase, 1 hour at 37° C.
Experimental: To determine the intracellular location of the complex, cells were immunostained for streptavidin. NIH 3T3 cells were seeded into 24-well tissue culture plates and incubated overnight. The cells were treated with 20 nM PTD-cargo moiety complex comprising the polypeptide sequence shown in SEQ ID NO:14 and streptavidin-linked β-galactosidase for 1 hour at 37° C. The cells were washed 3 times with PBS, and non-specific binding was blocked by a 30 minute incubation with normal goat serum at room temperature. Mouse anti-streptavidin monoclonal antibody (Monosan, Catalog No. 5043) was diluted to 1 μg/ml with PBS containing 20% normal goat serum. The diluted monoclonal antibody was added to the cells, and the cells were incubated for 1 hour at room temperature.
The cells were washed 3 times with PBS and a secondary Alexa Fluor 568 conjugated goat anti-mouse IgG (Molecular Probes, Catalog No. A-11019) was diluted 1:200 in PBS with 20% normal goat serum. Following a 30 minute incubation at room temperature, the cells were washed 3 times with PBS and visualized by fluorescent microscopy.
For data set [6], the system named is NIH 3T3 cells. The following applies: 20 nM complex with streptavidin-β-galactosidase, 1 hour at 37° C.
Experimental: The transport activities of PTDs were compared to determine if introduction of a nuclear localization signal affect translocation of a PTD-cargo moiety complex. The cargo moiety was streptavidin-linked β-galactosidase. The cargo moiety was streptavidin-linked β-galactosidase. The peptides differed by the position of the nuclear localization signal. The nuclear localization signal was located on the amino terminus (down-stream of a lysine linker) or the carboxy terminus. NIH 3T3 cells were seeded as described above. Each PTD complex was added to a final concentration of 20 nM, and the cells were incubated for 1 hour at 37° C. Following incubation, the cells were washed 3 times in PBS and assayed for nuclear localization of β-galactosidase. β-galactosidase activity was measured at 405 nm in a colorimetric assay.
Peptides containing two nuclear localization signals were tested to study the role of the multiple nuclear localization signals on peptide transport. NIH 3T3 cells were seeded as described above. A PTD-β-galactosidase complex was added to a final concentration of 20 nM, and the cells were incubated for 1 hour at 37° C. Following incubation, the cells were washed 3 times in PBS and assayed for nuclear localization of β-galactosidase.
Data set [7] relates to NIH 3T3 cells. Put plainly: PTD-β-galactosidase transduction into NIH 3T3 cells (lysate absorbance at 405 nm). It is filed as cell-based. The following applies: general statement in description. As to the method: N-terminally biotinylated direct and inverted isomers were compared to determine the transduction efficiency of inverted isomers of PTDs. PTDs and β-galactosidase were complexed together with a streptavidin-biotin bridge. NIH 3T3 cells were seeded into a 96-well plate and incubated as described above. The PTD-β-galactosidase complexes were formed (as described in Example 1) and added to a final concentration of 12.5 nM. […] The lysis reaction was stopped and the absorbance at 405 nm was measured. The transduction activity of inverted isomers is stronger than the transduction activity of direct PTDs.
The activities of 2 PTDs were compared to determine if the introduction of a lysine residue juxtaposed to the biotin moiety affects transduction activity. The pairs of peptides differed by a glycine to lysine substitution within the biotin peptide linker. PTDs and β-galactosidase were complexed together with a streptavidin-biotin bridge. NIH 3T3 cells were seeded as described above. […] The lysis reaction was stopped, and the absorbance at 405 nm was measured. The presence of a lysine residue juxtaposed to the biotin caused about a two-fold enhancement in transduction activity.
To further study the role of the lysine residue located in the biotin linker, the indirect PTDs and the direct PTDs with a lysine residue in the linker were compared. […]

Data set [8] relates to plasma membrane. The following applies: Wender et al., Proc. Natl. Acad. Sci USA 97:13003-13008, 2000; cited from earlier work.

Take `N=C(N)NCCC[C@H](NC(=O)CNC(=O)[C@@H](N)Cc1ccc(O)cc1)C(=O)N[C@@H](CCCCN)C(=O)N[C@@H](CCCCN)C(=O)N[C@@H](CCCNC(=N)N)C(=O)N[C@@H](CCCNC(=N)N)C(=O)N[C@@H](CCC(N)=O)C(=O)N[C@@H](CCCNC(=N)N)C(=O)N[C@@H](CCCNC(=N)N)C(=O)N[C@@H](CCCNC(=N)N)C(=O)NCC(=O)NCC(=O)N[C@@H](CCCCNC(=O)CCCC[C@@H]1SC[C@@H]2NC(=O)N[C@@H]21)C(=O)O` [SEQ ID NO:8, Tyr-Gly-Arg-Lys-Lys-Arg-Arg-Gln-Arg-Arg-Arg-Gly-Gly-Lys-Biotin]: in data set [1], the “effect on cell growth / cell viability” value was “did not inhibit cell growth”.

With `CSCC[C@H](NC(=O)[C@H](CC(C)C)NC(=O)[C@H](CCCCN)NC(=O)[C@H](CO)NC(=O)[C@@H](NC(=O)[C@H](CCCNC(=N)N)NC(=O)[C@H](CCCNC(=N)N)NC(=O)[C@H](CCC(N)=O)NC(=O)[C@H](CCCNC(=N)N)NC(=O)[C@@H](N)CCCNC(=N)N)[C@@H](C)O)C(=O)N[C@@H](CCCCN)C(=O)N[C@@H](CCCNC(=N)N)C(=O)NCC(=O)NCC(=O)N[C@@H](CCCCNC(=O)CCCC[C@@H]1SC[C@@H]2NC(=O)N[C@@H]21)C(=O)O` [SEQ ID NO:11, Arg-Arg-Gln-Arg-Arg-Thr-Ser-Lys-Leu-Met-Lys-Arg-Gly-Gly-Lys-Biotin] (H-RRQRRTSKLMKRGGK(Biotin)-OH), the “effect on cell growth / cell viability” value in data set [1] was “did not inhibit cell growth”. As to Biotin-GGARPLEHGSDKAT [SEQ ID NO:6], the transduction activity result in data set [2] is “negligible”. Biotin-GGGYARAAARQARA [SEQ ID NO:9]: the “function as a PTD (amount of β-galactosidase in the cell lysate vs negative control SEQ ID NO:6)” value in data set [3] is reported as “did not function as a PTD”.

With “Biotin-Gly-Gly-Gly-Tyr-Gly-Arg-Lys-Lys-Arg-Arg-Gln-Arg-Arg-Arg [SEQ ID NO:7]”, the “β-galactosidase reporter protein staining of cells” value in data set [4] is on record as “positive”. Take Biotin-KGGRKMLKSTRRQRR [SEQ ID NO:14]: the “intracellular location of the complex” value in data set [5] was “localized to the cytoplasm”. On to “Biotin-KGGRKMLKSTRRQRRKKKRKV [SEQ ID NO:19]”, for which, in data set [6], the “translocation of the complex, effect of nuclear localization signal and its position” value is “functioned much better”. With RKMLKSTRRQRR [SEQ ID NO:1], the “ability to function as a PTD relative to tat (SEQ ID NO:24) and WO 01/15511 peptide (SEQ ID NO:25)” value in data set [7] was “more efficiently”. Turning to “SEQ ID NO:23: a reverse isomer of a tat-derived peptide (reverse tat), Wender et al. (RRRQRRKKRGY; Human immunodeficiency virus)”, in data set [8], the “efficiency of crossing the plasma membrane relative to tat (SEQ ID NO:24)” value is recorded as “about three times”.

(Values after patent publication US7420031B2, “Intracellular delivery of small molecules, proteins, and nucleic acids” (Lonza Walkersville, Inc., priority 2003, dated 2008).)
